Test results reported in ChEMBL document CHEMBL1158551, “Click reaction synthesis of carbohydrate derivatives from ristocetin aglycon with antibacterial and antiviral activity” (Bioorg Med Chem Lett, 2010).
Converted amounts (≈) assume the structure as drawn. The source made the active and inactive calls. The rule behind the calls is not given here.

Legend:
Influenza B virus [1] = assay: Antiviral activity against influenza B virus assessed as cell viability by cell based MTS assay; assay type: functional, organism-based
Bacillus subtilis = assay: Antibacterial activity against Bacillus subtilis ATCC 6633 by broth microdilution method; assay type: functional
Staphylococcus aureus [2] = assay: Antibacterial activity against methicillin-[…] Staphylococcus aureus ATCC 29213 by broth microdilution method; assay type: functional
Influenza A virus [3] = assay: Antiviral activity against influenza A virus H1N1 assessed as cell viability by cell based MTS assay; assay type: functional, organism-based
Enterococcus faecalis [4] = assay: Antibacterial activity against vancomycin and teicoplanin-resistant Enterococcus faecalis 15376 expressing VanA gene by broth microdilution method; assay type: functional
Influenza A virus [5] = assay: Antiviral activity against Influenza A virus H3N2 assessed as cell viability by cell based MTS assay; assay type: functional, organism-based
[6] = tested on: Staphylococcus epidermidis; assay: Antibacterial activity against biofilm positive Staphylococcus epidermidis ATCC 35984; assay type: functional
Influenza A virus [7] = assay: Antiviral activity against influenza A virus H1N1 assessed as inhibition of viral induced cytopathic effect; assay type: functional, organism-based
Influenza B virus [8] = assay: Antiviral activity against influenza B virus assessed as inhibition of viral induced cytopathic effect; assay type: functional, organism-based
Staphylococcus aureus [9] = assay: Antibacterial activity against methicillin-[…] Staphylococcus aureus ATCC 33591 by broth microdilution method; assay type: functional
[10] = tested on: Staphylococcus epidermidis; assay: Antibacterial activity against Staphylococcus epidermidis by broth microdilution method; assay type: functional
Enterococcus faecalis [11] = assay: Antibacterial activity against vancomycin and teicoplanin-sensitive Enterococcus faecalis ATCC 29212 by broth microdilution method; assay type: functional
Influenza A virus [12] = assay: Antiviral activity against Influenza A virus H3N2 assessed as inhibition of viral induced cytopathic effect; assay type: functional, organism-based
Platelet = assay: Inhibition of ristocetin-induced platelet aggregation at 0.1 mg/ml; assay type: functional, cell-based
Enterococcus faecalis [13] = assay: Antibacterial activity against vancomycin-resistant and teicoplanin-sensitive Enterococcus faecalis ATCC 5129 expressing VanB gene by broth microdilution method; assay type: functional
[14] = Toxicity assessed as increase of ristocetin-induced platelet aggregation; assay type: cell-based

What does the source list for `COC(=O)[C@@H]1NC(=O)[C@H]2NC(=O)[C@H](NC(=O)[C@@H]3NC(=O)[C@H]4NC(=O)[C@H](NC(=O)[C@H](n5cc(CO[C@H]6O[C@H](CO)[C@@H](O[C@H]7O[C@H](CO)[C@@H](O)[C@H](O)[C@H]7O)[C@H](O)[C@H]6O)nn5)c5ccc(O)c(c5)Oc5cc4cc(O)c5C)[C@H](O)c4ccc(cc4)Oc4cc3cc(c4O)Oc3ccc(cc3)[C@H]2O)c2ccc(O)c(c2)-c2c(O)cc(O)cc21`?
EC50 (Influenza B virus [1]): 61 µM; MBC (Bacillus subtilis): 4 µg/mL (≈ 2.53 µM); MIC (Bacillus subtilis): 4 µg/mL (≈ 2.53 µM); MBC (Staphylococcus aureus [2]): 256 µg/mL (≈ 162 µM); MIC (Staphylococcus aureus [2]): 4 µg/mL (≈ 2.53 µM); EC50 (Influenza A virus [3]): 20 µM; MBC (Enterococcus faecalis [4]): 256 µg/mL (≈ 162 µM); MIC (Enterococcus faecalis [4]): 8 µg/mL (≈ 5.06 µM); EC50 (Influenza A virus [5]): > 100 µM; MBC [6]: 8 µg/mL (≈ 5.06 µM); MIC [6]: 4 µg/mL (≈ 2.53 µM); EC50 (Influenza A virus [7]): 16 µM; EC50 (Influenza B virus [8]): 52 µM; MBC (Staphylococcus aureus [9]): 256 µg/mL (≈ 162 µM); MIC (Staphylococcus aureus [9]): 2 µg/mL (≈ 1.27 µM); MBC [10]: 2 µg/mL (≈ 1.27 µM); MIC [10]: 1 µg/mL (≈ 0.633 µM); MBC (Enterococcus faecalis [11]): 256 µg/mL (≈ 162 µM); MIC (Enterococcus faecalis [11]): 4 µg/mL (≈ 2.53 µM); EC50 (Influenza A virus [12]): > 100 µM; inhibition (Platelet): Active; MBC (Enterococcus faecalis [13]): 256 µg/mL (≈ 162 µM); MIC (Enterococcus faecalis [13]): 32 µg/mL (≈ 20.2 µM)

Which EC50 (Influenza B virus [1]) does the source give for `COC(=O)[C@H]1NC(=O)[C@H]2NC(=O)[C@H](NC(=O)[C@@H]3NC(=O)[C@H]4NC(=O)[C@H](NC(=O)[C@H](n5cc(CO[C@@H]6O[C@@H](C)[C@H](O)[C@@H](O)[C@H]6O)nn5)c5ccc(O)c(c5)Oc5cc4cc(O)c5C)[C@H](O)c4ccc(cc4)Oc4cc3cc(c4O)Oc3ccc(cc3)[C@H]2O)c2ccc(O)c(c2)-c2c(O)cc(O)cc21` here?
The EC50 was greater than 100 µM.

What about the EC50 (Influenza A virus [3]) of the same compound?
The EC50 was greater than 100 µM.

What about the Activity [14] of the same compound?
The Activity was “Toxic”.

And the EC50 (Influenza A virus [5])?
Its EC50 is greater than 100 µM.

What about the EC50 (Influenza A virus [7]) of the same compound?
The EC50 was greater than 100 µM.

And the EC50 (Influenza B virus [8])?
The EC50 was greater than 100 µM.

And the EC50 (Influenza A virus [12])?
Its EC50 is greater than 100 µM.

What does the source list for `COC(=O)[C@@H]1NC(=O)[C@H]2NC(=O)[C@H](NC(=O)[C@@H]3NC(=O)[C@H]4NC(=O)[C@H](NC(=O)[C@H](n5cc(CO[C@H]6O[C@H](CO)[C@@H](O)[C@H](O)[C@H]6O)nn5)c5ccc(O)c(c5)Oc5cc4cc(O)c5C)[C@H](O)c4ccc(cc4)Oc4cc3cc(c4O)Oc3ccc(cc3)[C@H]2O)c2ccc(O)c(c2)-c2c(O)cc(O)cc21`?
EC50 (Influenza B virus [1]): 33 µM; MBC (Bacillus subtilis): 8 µg/mL (≈ 5.64 µM); MIC (Bacillus subtilis): 2 µg/mL (≈ 1.41 µM); MBC (Staphylococcus aureus [2]): 256 µg/mL (≈ 180 µM); MIC (Staphylococcus aureus [2]): 2 µg/mL (≈ 1.41 µM); EC50 (Influenza A virus [3]): 16 µM; MBC (Enterococcus faecalis [4]): 256 µg/mL (≈ 180 µM); MIC (Enterococcus faecalis [4]): 4 µg/mL (≈ 2.82 µM); EC50 (Influenza A virus [5]): ≥ 30 µM; MBC [6]: 4 µg/mL (≈ 2.82 µM); MIC [6]: 2 µg/mL (≈ 1.41 µM); EC50 (Influenza A virus [7]): 14 µM; EC50 (Influenza B virus [8]): 32 µM; MBC (Staphylococcus aureus [9]): 128 µg/mL (≈ 90.2 µM); MIC (Staphylococcus aureus [9]): 2 µg/mL (≈ 1.41 µM); MBC [10]: 4 µg/mL (≈ 2.82 µM); MIC [10]: 4 µg/mL (≈ 2.82 µM); MBC (Enterococcus faecalis [11]): 256 µg/mL (≈ 180 µM); MIC (Enterococcus faecalis [11]): 4 µg/mL (≈ 2.82 µM); EC50 (Influenza A virus [12]): ≥ 45 µM; inhibition (Platelet): Active; MBC (Enterococcus faecalis [13]): 256 µg/mL (≈ 180 µM); MIC (Enterococcus faecalis [13]): 8 µg/mL (≈ 5.64 µM)

Which results are given for `COC(=O)[C@@H]1NC(=O)[C@H]2NC(=O)[C@H](NC(=O)[C@@H]3NC(=O)[C@H]4NC(=O)[C@H](NC(=O)[C@H](n5cc(CO[C@H]6O[C@H](CO)[C@@H](O)[C@H](O)[C@@H]6O)nn5)c5ccc(O)c(c5)Oc5cc4cc(O)c5C)[C@H](O)c4ccc(cc4)Oc4cc3cc(c4O)Oc3ccc(cc3)[C@H]2O)c2ccc(O)c(c2)-c2c(O)cc(O)cc21`?
EC50 (Influenza B virus [1]): ≥ 50 µM; MBC (Bacillus subtilis): 4 µg/mL (≈ 2.82 µM); MIC (Bacillus subtilis): 4 µg/mL (≈ 2.82 µM); MIC (Staphylococcus aureus [2]): 2 µg/mL (≈ 1.41 µM); EC50 (Influenza A virus [3]): 22 µM; MBC (Enterococcus faecalis [4]): 64 µg/mL (≈ 45.1 µM); MIC (Enterococcus faecalis [4]): 16 µg/mL (≈ 11.3 µM); EC50 (Influenza A virus [5]): ≥ 46 µM; MBC [6]: 8 µg/mL (≈ 5.64 µM); MIC [6]: 4 µg/mL (≈ 2.82 µM); EC50 (Influenza A virus [7]): 10 µM; EC50 (Influenza B virus [8]): ≥ 45 µM; MBC (Staphylococcus aureus [9]): 16 µg/mL (≈ 11.3 µM); MIC (Staphylococcus aureus [9]): 4 µg/mL (≈ 2.82 µM); MBC [10]: 8 µg/mL (≈ 5.64 µM); MIC [10]: 4 µg/mL (≈ 2.82 µM); MBC (Enterococcus faecalis [11]): 256 µg/mL (≈ 180 µM); MIC (Enterococcus faecalis [11]): 8 µg/mL (≈ 5.64 µM); EC50 (Influenza A virus [12]): ≥ 45 µM; inhibition (Platelet): inactive; MBC (Enterococcus faecalis [13]): 256 µg/mL (≈ 180 µM); MIC (Enterococcus faecalis [13]): 16 µg/mL (≈ 11.3 µM)

With `COC(=O)[C@@H]1NC(=O)[C@H]2NC(=O)[C@H](NC(=O)[C@@H]3NC(=O)[C@H]4NC(=O)[C@H](NC(=O)[C@H](n5cc(CO[C@H]6O[C@H](CO)[C@@H](O)[C@H](O)[C@H]6NC(C)=O)nn5)c5ccc(O)c(c5)Oc5cc4cc(O)c5C)[C@H](O)c4ccc(cc4)Oc4cc3cc(c4O)Oc3ccc(cc3)[C@H]2O)c2ccc(O)c(c2)-c2c(O)cc(O)cc21` as the compound, how does the EC50 (Influenza B virus [1]) read?
The EC50 was 40 µM.

And the MBC (Bacillus subtilis)?
The MBC was 8 µg/mL (≈ 5.48 µM).

And the MIC (Bacillus subtilis)?
The MIC was 4 µg/mL (≈ 2.74 µM).

And the MBC (Staphylococcus aureus [2])?
Its MBC is 2 µg/mL (≈ 1.37 µM).

What about the MIC (Staphylococcus aureus [2]) of the same compound?
Its MIC is 2 µg/mL (≈ 1.37 µM).

What about the EC50 (Influenza A virus [3]) of the same compound?
The EC50 was 8.7 µM.

What about the MBC (Enterococcus faecalis [4]) of the same compound?
Its MBC is 256 µg/mL (≈ 175 µM).

What about the MIC (Enterococcus faecalis [4]) of the same compound?
Its MIC is 8 µg/mL (≈ 5.48 µM).

And the EC50 (Influenza A virus [5])?
Its EC50 is no less than 72 µM.

And the MBC [6]?
The MBC was 2 µg/mL (≈ 1.37 µM).

And the MIC [6]?
Its MIC is 2 µg/mL (≈ 1.37 µM).

What about the EC50 (Influenza A virus [7]) of the same compound?
Its EC50 is 9 µM.

What about the EC50 (Influenza B virus [8]) of the same compound?
Its EC50 is 32 µM.

And the MBC (Staphylococcus aureus [9])?
The MBC was 4 µg/mL (≈ 2.74 µM).

And the MIC (Staphylococcus aureus [9])?
The MIC was 4 µg/mL (≈ 2.74 µM).

And the MBC [10]?
Its MBC is 4 µg/mL (≈ 2.74 µM).

And the MIC [10]?
Its MIC is 2 µg/mL (≈ 1.37 µM).

And the MBC (Enterococcus faecalis [11])?
Its MBC is 256 µg/mL (≈ 175 µM).

What about the MIC (Enterococcus faecalis [11]) of the same compound?
The MIC was 8 µg/mL (≈ 5.48 µM).

And the EC50 (Influenza A virus [12])?
The EC50 was no less than 45 µM.

And the inhibition (Platelet)?
The inhibition was “inactive”.

And the MBC (Enterococcus faecalis [13])?
The MBC was 256 µg/mL (≈ 175 µM).

What about the MIC (Enterococcus faecalis [13]) of the same compound?
Its MIC is 16 µg/mL (≈ 11 µM).
